The values below come from US11052127B2, “HSP for use in treatment for imiquimod related side effects” (Alfa Biogene International B.V., priority 2012, dated 2021).

The subject of data set [1] is BALBc mice. Description: Ear pinnae thickness in mice treated with imiquimod cream with or without HSP70 cream. The data set is classed as in vivo. The note with it: Group 1, imiquimod 5% cream only, 3.125 mg daily dose. On the procedure:
(§1) The effect of HSP was tested on mice (BALBc mice, male 10-12 weeks old) The mice were divided in 5 groups of eight mice each: […] Group 2: mice were treated for 6 days as group 1. […] Group 3: mice were treated for 6 days as group 2, except for the cream comprising 250 μg/ml HSP (100 μg HSP per dose) Group 4: mice were treated as group 2 except for the carrier cream comprising no Hsp70. (mice were treated for six days, twice a day, once four hours before treatment with imiquimod, once four hours after treatment with imiquimod. Group 5: control group, no cream application. Day 1: initial evaluation for visible signs of psoriasis. […] Animal backs were shaved and photographs were taken. Thickness of both ear pinnae were measured. Cream application was performed creams. All animals were assessed and examined once daily for behavioural changes and adverse effects. Ear pinnae measurements are performed daily. Skin changes Study groups on ordinal and continuous outcomes were compared using the Kruskal-Wallis test with a […] adjustment for pairwise group comparisons for an overall statistical significance criteria of 0.05 for each outcome.

Data set [2] concerns BALBc mice. Briefly: Cumulative PASI score (erythema, scales, thickness) of imiquimod-treated mice. The class given is in vivo. The conditions noted are these: day 7; maximum of 12 points; Group 1, imiquimod only. On the procedure: as §1, with “taken.” for “taken. Thickness of both ear pinnae were measured. Cream application was performed creams. All animals”, “by the PASI score. On day 7, photographs of all animals (backs) were taken to document progression of the disease.” for “and examined once daily for behavioural changes and adverse effects. Ear pinnae measurements are performed daily. Skin changes”

Data set [3] relates to BALBc mice. Briefly: Histology of back skin samples: average epidermal thickness of the treated skin. The data set is classed as in vivo. The note with it: day 7, Group 1, imiquimod only.
Method: (§2) Group 1: mice were treated for 6 days on shaved back and right ear with one daily application of imiquimod 5% cream to the skin (3.125 mg daily dose)
(§3) Group 2: mice were treated for 6 days as group 1. In addition the part of the skin to which imiquimod was applied was treated twice daily with the cream comprising 50 μg/ml HSP (20 μg HSP per dose). Each day, the cream comprising HSP70 was applied to the skin in a 1 mm layer, 4 hours before application of the imiquimod, and again 4 hours after treatment with imiquimod.
Day 7: The animals were euthanized and skin tissue and blood was processed. Inflammatory markers were measured with Q-PCR (skin samples). Skin samples were histologically examined. […]
Data set [4] deals with patients. The note with it: cited from earlier work.
For data set [5], the system named is BALBc mice. Briefly: Visual appearance (scaling) of the backs of the mice, FIG. 1. The data set is classed as in vivo. The note with it: after 6 days of treatment.
Method: as §2, §3
From left to right: Group 2 (20 μg HSP), Group 3 (100 μg HSP), Group 4 (carrier cream only) and Group 1 (imiquimod only)

Where two headings read alike, the source gives them in different places.

In data set [1] (Day 1), `CC(C)Cn1cnc2c(N)nc3ccccc3c21` [imiquimod] had an ear thickness of 0.21 mm. This compound also returned an ear thickness in data set [1] (Day 5) of 0.28 mm. Besides, the ear thickness in data set [1] (Day 6) stood at 0.37 mm. Further, the ear thickness in data set [1] (Day 7) was determined as 0.40 mm. Moreover, the “cumulative PASI score” value in data set [2] is listed as 6.5. Moreover, in data set [3], the “average epidermal thickness of the treated skin” value came to 58 μm. In addition, in data set [4] (in females), the “remote site skin reaction: edema” value is 1%, the “remote site skin reaction: erythema” value is on record as 3% and the “remote site skin reaction: ulceration” value was 2%. In data set [4] (in males), the “remote site skin reaction: edema” value was 1%, the “remote site skin reaction: erosion” value is listed as 2%, the “remote site skin reaction: erythema” value was 1% and the “remote site skin reaction: induration” value was 1%. Besides, the “remote site skin reaction: scaling/excoriation/flaking” value in data set [4] (in males) is listed as 1%. Moreover, in data set [4] (in vivo), the “remote site reactions: bleeding, burning, itching, pain, dryness, scabbing, crusting, redness, hardening of the skin, tenderness, tinea cruris” value was “more than 1 % of patients”. The “scaling of the backs of the mice” value in data set [5] is “severely scaled”.
